One experiment relates to mice. The experiment is described as follows: hot plate test in mice (influence on morphine analgesia). The experiment is classed as in vivo. To be noted: for influence on the analgesic effect of morphine (in words): 30 mg/kg ip. with morphine HCl 1 mg/kg sc.; for analgesia when given alone (in words): alone: morphine HCl 1 mg/kg sc., deramciclane 30 mg/kg ip., buspiron HCl 30 mg/kg ip. The protocol:
A modified of method of Eddy et al. (Eddy, N. B., Leimback, D., Synthetic Analgesics II. Dithienylbutenyl and Dithienylbutylamines. J. Pharmacol. Exp. Ther. 107: p. 385-393, 1953) was used. Male NMRI nice (20-25 g bodyweight) were dropped on a hot plate (56±0.5° C.) and the latency time elapsed until licking the forepaws was measured. The reaction time was tested twice before treatment. […] Mice were treated either with saline or with morphine HCl 1 mg/kg subcutaneously and at the same time either with vehicle or with deramciclane or buspirone, HCl 30 mg/kg intraperitoneally, respectively. After the treatment (15, 30, 45 and 60 min.) the reaction time was measured again. Animals were regarded as positive if they produced a 2.5-fold reaction time increase at least twice compared to their first control values. Statistical analysis was performed using the chi-square method.

For experiment [1] the following is noted: 1 and 10 mg/kg after oral administration; cited from earlier work.
For experiment [2] the following is noted: single 0.7 mg/kg oral treatment; cited from earlier work.
For experiment [3] the following is noted: single oral dose of 3 mg/kg; cited from earlier work.
The conditions of experiment [4]: 10 and 30 mg/kg after oral treatment; cited from earlier work.
The conditions of experiment [5]: in the above mentioned doses (0.7-30 mg/kg); cited from earlier work.
[6] abbreviates: Morphine HCl 1 mg/kg sc. + 0.4% methyl cellulose ip.
The mark [7] stands for this setting: Morphine HCl 1 mg/kg sc. + Saline ip.
The mark [8] stands for this setting: Saline sc. + Buspiron HCl 30 mg/kg ip.

“Also recorded” adds a separate entry of the source. Counter-ions that a name gives are not always drawn.

Consider 3 compounds from patent US20070244102A1, “Combination of Dermaciclane and Opoids as Analgesics” (priority 2004, published 2007).

As for “(1R,2S,4R)-(−)-2-[N,N-(dimethylaminoethoxy)]-2-phenyl-1,7,7-trimethylbicyclo[2.2.1]heptane [Deramciclane]”, in the experiment with mice, the “influence on the analgesic effect of morphine (in words)” value is on record as “potentiation of the analgesic effect of morphine” and the “analgesia when given alone (in words)” value is on record as “Neither morphine HCl 1 mg/kg sc. nor deramciclane 30 mg/kg ip. nor buspiron HCl 30 mg/kg ip. alone produced analgesia; also recorded: neither deramciclane nor buspiron possess analgesic effect in itself”. Further, the Effect % with mice (Saline sc. + Deramciclane 30 mg/kg ip.) turned out to be 0%. For the same compound, the Positive/treated animals with mice (Saline sc. + Deramciclane 30 mg/kg ip., positive = 2.5-fold reaction time increase at least twice, 15-60 min) is 0/10. For the same compound, in experiment [1], the “activity in Vogel punished drinking test” value is reported as “active”. The “time spent with social interactions” value in experiment [2] is given as “increased the time spent with social interactions”. The “activity in light-dark model” value in experiment [3] is given as “active”. For the same compound, the “activity in marble burying model” value in experiment [4] is “active”. Besides, in experiment [5], the analgesic activity entry was “did not possess analgesic activity”.
Turning to `CN1CC[C@]23c4c5ccc(O)c4O[C@H]2[C@@H](O)C=C[C@H]3[C@H]1C5.Cl` [Morphine HCl, morphine HCl], the Effect % in the experiment with mice (setting [6]) and with mice (setting [7]) was 0% in each case. Besides, the Positive/treated animals in the experiment on mice (setting [6]) and in the experiment on mice (setting [7]) was 0/10 each time. For the same compound, in the experiment with mice, the “analgesia when given alone (in words)” value is reported as “Neither morphine HCl 1 mg/kg sc. nor deramciclane 30 mg/kg ip. nor buspiron HCl 30 mg/kg ip. alone produced analgesia”.
Turning to `O=C1CC2(CCCC2)CC(=O)N1CCCCN1CCN(c2ncccn2)CC1` [Buspiron HCl, buspirone, HCl], the “influence on the analgesic effect of morphine (in words)” value in the experiment on mice was “did not influence the analgesic effect of morphine”. For the same compound, in the experiment with mice (setting [8]), the Effect % is given as 0% and the Positive/treated animals is given as 0/10. Also, the “analgesia when given alone (in words)” value in the experiment with mice (listed as buspiron HCl, HCl) was “Neither morphine HCl 1 mg/kg sc. nor deramciclane 30 mg/kg ip. nor buspiron HCl 30 mg/kg ip. alone produced analgesia”. Further, the “analgesia when given alone (in words)” value in the experiment with mice (listed as buspiron, HCl) is recorded as “neither deramciclane nor buspiron possess analgesic effect in itself”.
